Results as given in patent US8865762B2, “Method for the treatment of bone diseases comprising colforsin daropate” (Korea Research Institute of Bioscience and Biotechnology, priority 2009, dated 2014).
Entries after “also recorded” stand apart in the source; their conditions may differ.

Key:
[1] = tested on: murine monocytic cell line, RAW264.7; test: Cytotoxicity test of monocytes (CCK-8 kit); assay type: cell-based; settings: RAW264.7, 0, 10, 20 and 30 μM, after 1, 2 and 4 days, FIG. 1, monohydrochloride
Procedure: The murine monocytic cell line, RAW264.7 (ATTC TIB-71) was cultured in a DMEM medium supplemented with 10% FBS, and the medium was replaced every other day. The cell culture reagents were purchased from Hyclone. When RAW264.7 cells reached 70% confluence, the collected cells were aliquotted into a 96-well plate at a density of 1×10^3/well, and cultured for 24 hours. Subsequently, the cells were treated with colforsin daropate at various concentrations (0, 10, 20 and 30 μM), and cultured for 96 hours. After 1, 2, and 4 days in culture, a cytotoxicity test was performed using the cells in each well and a CCK-8 kit (Dojindo, Japan).

[2] = tested on: ovariectomy-induced bone loss; test: Bone density-improving effect in ovariectomy-induced osteoporosis model (micro-CT); assay type: in vivo, DDY female mice; settings: ovariectomized mice, p.o. 5 mg/kg or 10 mg/kg once a day for 4 weeks, FIG. 4, monohydrochloride
Procedure: Thus, most studies are performed in animals. Ovariectomized mice are frequently used as a model for postmenopausal osteoporosis. Ovariectomized mice and early postmenopausal women share many similar characteristics, and thus ovariectomized mice have been commonly used in the studies of osteoporosis therapeutic agents. The present inventors performed ovariectomies on 5-week-old DDY female mice. The mice were anesthetized by intraperitoneal injection of 25 mg/kg of pentobarbital sodium (JW Pharmaceutical Corp). The abdomen of each mouse was shaved, and the surgical site was cleansed with antiseptics to perform ovariectomy. A 1.5 cm abdominal incision was made through the skin, muscle, and peritoneum to expose the ovary. The ovary was dissected out, and the peritoneum, muscle, and skin were sutured. As a control group, a sham ovariectomy was performed to the peritoneum identically, but the ovaries remained intact. The mouse models having ovariectomy-induced bone loss were orally administered (p.o.) with the colforsin compound at the concentrations of 5 mg/kg or 10 mg/kg once a day for 4 weeks. The effects were examined using a high resolution in-vivo micro-CT system (explore Locus scanner, GE Health Care, USA) to analyze the bone density.

[3] = tested on: TRAP activity induced by RANKL in the monocytic cell line RAW264.7; test: Osteoclast differentiation, TRAP staining and activity assay; assay type: cell-based, murine
Procedure: At this time, α-MEM containing 100 ng/ml RANKL (R&D systems) and 10% FBS was used as a cell suspension medium. After 24 hours, the cells were treated with colforsin daropate at various concentrations (0, 0.2, 1, 2, 10, and 20 μM). After 3 days, TRAP staining was performed using a leukocyte acid phosphatase kit (Sigma). The stained cells were first fixed in 10% formalin for 10 minutes, and then dehydrated in 95% ethanol, and dried well at room temperature. Subsequently, 100 μl of citrate buffer (50 mM, pH 4.6) containing 10 mM sodium tartrate and 5 mM p-nitrophenylphosphate was added to each well, and reacted for 20 to 30 minutes. Thereafter, the enzyme reaction mixtures were transferred into new 96-well plates, and the reaction was terminated using 100 μl of 0.1 N NaOH. Absorbance was measured at 405 nm. TRAP activity was presented as a % of control, and a significance test was performed by t-test at the same time (purmorphamine treatment p<0.01; colforsin daropate treatment p<0.001). Purmorphamine was used as a control compound.

[4] = tested on: murine osteoblastic cell, MC3T3-E1 subclone 4; test: Cell proliferation of osteoblastic cells; assay type: cell-based
[5] = tested on: ALP activity in multipotent C3H10T1/2 cells; test: Alkaline phosphatase (ALP) activity, C3H10T1/2; assay type: cell-based; settings: FIG. 3B
Procedure: (§1) A murine osteoblastic cell, MC3T3-E1 subclone 4 (ATCC CRL-2593) was treated with colforsin daropate. After 8 days, cells were lysed using a lysis buffer (10 mM Tris-HCl, pH 7.5, 0.5 mM MgCl2, 0.1% Triton X-100) at room temperature for 30 minutes, and centrifuged at 12,000 rpm and 4° C. for 20 minutes. Next, […] in the obtained supernatant using a BCA kit (Bio-Rad), and its activity was measured using a LabAssay ALP kit (Wako, Japan). In this regard, the measured activity was presented as a % of the control, and a significance test was performed by t-test (colforsin daropate treatment, p<0.05; purmorphamine treatment as control, p<0.05). The same experiment was performed using multipotent C3H10T1/2 cells (cells can differentiate toward various lineages, including osteocytes).

[6] = tested on: ALP activity in murine osteoblastic cell, MC3T3-E1 subclone 4; test: Alkaline phosphatase (ALP) activity of osteoblast, MC3T3-E1; assay type: cell-based; parameters: osteoblast differentiation-related ALP activity compared with the control compound purmorphamine: dose or concentration left out as unconfirmed
Procedure: as §1, with “In order to examine the effect of colforsin daropate on the activity of ALP, of which activity and expression are known to be increased at an early stage of osteoblast differentiation, the following experiment was performed. A murine” for “A murine”

SMILES: C=C[C@@]1(C)CC(=O)[C@]2(O)[C@@]3(C)[C@@H](O)CCC(C)(C)[C@@H]3[C@H](OC(=O)CCN(C)C)[C@H](OC(C)=O)[C@@]2(C)O1.Cl [colforsin daropate]
- cytotoxicity [1]: no cytotoxicity; also recorded: without cytotoxicity
- bone density / ovariectomy-induced bone loss [2]: remarkably increased; also recorded: remarkably improved
- TRAP activity induced by RANKL ([3]; RAW264.7, 100 ng/ml RANKL, 0.2-20 μM, 3 days, % of control, FIG. 2): inhibited TRAP activity induced by RANKL in the monocytic cell line RAW264.7 in a concentration-dependent manner
- osteoclast differentiation ([3]; RAW264.7 with RANKL, FIGS. 1 and 2): efficacy of inhibiting osteoclast differentiation
- cell proliferation [4]: did not affect cell proliferation
- ALP activity [5]: also remarkably increased
- ALP activity ([6]; MC3T3-E1 subclone 4, after 8 days, % of control, FIG. 3A): remarkably increased
- osteoblast differentiation-related ALP activity compared with the control compound purmorphamine ([6]; versus purmorphamine): more increased
